The test system of test [1] is NCI-H460 cell line (NSCL cancer). The experiment in a line: Cell growth inhibition assay (cytotoxicity, cell count). The test is classed as cell-based, human. As to the method:
The compounds of the invention were tested in a cytotoxicity assay on a wide spectrum of tumour cells. By way of example, the cytotoxicity data on the NCI-H460 cell line (NSCL cancer) concerning two compounds of formula (I) are reported, using camptothecin and the drugs Topotecan and SN-38 as references:
H460 Cells from human large cell lung tumor were cultured in RPMI-1640 medium containing 10% foetal calf serum. Cell sensitivity was determined by cell growth inhibition assay after 1 or 72 hr drug exposure. The cells in logarithmic growth were collected and seeded in duplicate in 6-wells plates. […] IC50 is defined as the concentration inhibiting by 50% cell growth compared with untreated controls growth.

The target of test [2] is T1, human recombinant enzyme (full length top1) (Homo sapiens, UniProt P11387).
T1 construct: the human recombinant enzyme (full length top1)
T1 sequence (P11387 1-765): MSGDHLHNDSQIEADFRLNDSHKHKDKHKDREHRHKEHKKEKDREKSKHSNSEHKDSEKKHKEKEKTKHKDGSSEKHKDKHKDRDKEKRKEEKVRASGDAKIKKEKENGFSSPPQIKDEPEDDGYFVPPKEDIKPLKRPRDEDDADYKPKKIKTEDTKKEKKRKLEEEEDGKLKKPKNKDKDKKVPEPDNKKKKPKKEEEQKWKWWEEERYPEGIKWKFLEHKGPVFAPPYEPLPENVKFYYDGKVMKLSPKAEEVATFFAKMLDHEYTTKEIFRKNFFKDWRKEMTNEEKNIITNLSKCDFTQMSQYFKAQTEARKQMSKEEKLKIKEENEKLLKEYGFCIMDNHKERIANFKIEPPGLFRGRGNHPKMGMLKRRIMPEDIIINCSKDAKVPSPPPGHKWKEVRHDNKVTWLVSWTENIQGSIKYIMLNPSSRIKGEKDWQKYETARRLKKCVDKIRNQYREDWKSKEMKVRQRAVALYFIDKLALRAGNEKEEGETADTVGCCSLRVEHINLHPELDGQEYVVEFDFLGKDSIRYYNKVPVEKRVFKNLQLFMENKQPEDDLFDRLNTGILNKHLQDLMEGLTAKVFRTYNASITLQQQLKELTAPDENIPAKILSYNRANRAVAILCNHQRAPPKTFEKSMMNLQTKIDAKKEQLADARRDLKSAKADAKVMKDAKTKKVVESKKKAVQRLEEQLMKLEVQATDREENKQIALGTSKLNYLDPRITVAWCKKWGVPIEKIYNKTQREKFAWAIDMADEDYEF
Briefly: Topoisomerase-I-dependent DNA rupture assay, DNA damage persistence. Format: biochemical. Particulars: 30 min incubation with 10 μM drug. As to the method: DNA ruptures were determined using a 751-bp BamHI-EcoRI DNA SV40 purified gel (Beretta G L, Binaschi M, Zagni A N D, Capuani L, Capranico G. Tethering a type IB topoisomerase to a DNA site by enzyme fusion to a heterologous site-selective DNA-binding protein domain. Cancer Res 1999; 59:3689-97). DNA fragments were only labeled at 3′. The DNA rupture reaction (20,000 cpm/sample) was carried out in […] of 10 mM Tris-HCL (pH 7.6), 150 mM KCl, 5 mM MgCl2, 15 μg/mL BSA, 0.1 mM thiothreitol, and the human recombinant enzyme (full length top1) for 30 min at 37° C. The reactions were blocked using 0.5% SDS and 0.3 mg/mL K proteinase for 45 min. at 42° C. DNA damage persistence was tested at different times adding 0.6M NaCl after 30 min. incubation with 10 μM of the drug. After precipitation, DNA was resuspended in denaturation buffer (80% formamide, 10 mM NaOH, 0.01 M EDTA and 1 mg/mL dye) before seeding in desaturating gel (7% polyacrylamide in TBE buffer).

Setting [3] is: NCI-H460, H460 human large cell lung tumor cells, 1 or 72 hr drug exposure, counted with Coulter counter 72 hours after exposure, read-out: NCI-H460 IC50 (μg/mL) Cell count.
Setting [4] is: Time 0 min after adding 0.6M NaCl.
Setting [5] is: Time 1 min after adding 0.6M NaCl.
Where [6] appears, read: Time 5 min after adding 0.6M NaCl.
Where [7] appears, read: Time 10 min after adding 0.6M NaCl.

Structures are written as SMILES. Values after ≈ are worked out from the molar mass of the structure shown. Like-named read-outs stand apart in the source and are kept apart here.

Regarding `CC[C@@]1(O)C(=O)OCc2c1cc1n(c2=O)Cc2cc3ccccc3nc2-1` [Camptothecin], the IC50 in test [1] (setting [3]) amounted to 0.115 ± 0.0174 µg/mL (≈ 0.33 µM). The “Persitence of DNA damage (%)” value is 100% in test [2] (setting [4]), 58% in test [2] (setting [5]), 23% in test [2] (setting [6]) and 20% in test [2] (setting [7]).
For `CC[C@@]1(O)C(=O)OCC2=C1C=C1c3nc4ccccc4cc3C3NN=C2N13` (stereo partly drawn) [IDN 6132] the same measures were 17 ± 4.25 µg/mL (≈ 47.2 µM), 100%, 45%, 32% and 20%.
For the compound `CC[C@@]1(O)C(=O)OCc2c1cc1c3nc4ccccc4cc3c3nnc2n13` [IDN 6137, triazole[5,4-c]16a-deoxocamptothecin], the IC50 in test [1] (Homo sapiens, NCI-H460, read-out: NCI-H460 IC50 (μg/mL) Cell count) amounted to 3.8 ± 1.08 µg/mL (≈ 10.6 µM).
`CCc1c2c(nc3ccc(O)cc13)-c1cc3c(c(=O)n1C2)COC(=O)[C@]3(O)CC` [SN38, 10-hydroxy-7-ethylcamptothecin]: the IC50 in test [1] (setting [3]) was 0.0865 ± 0.0049 µg/mL (≈ 0.22 µM). Besides, the “Persitence of DNA damage (%)” value came out at 100% in test [2] (setting [4]), 60% in test [2] (setting [5]), 33% in test [2] (setting [6]) and 28% in test [2] (setting [7]).
For `CC[C@@]1(O)C(=O)OCc2c1cc1n(c2=O)Cc2cc3c(CN(C)C)c(O)ccc3nc2-1` [Topotecan] the same measures were 0.63 ± 0.44 µg/mL (≈ 1.49 µM), 100%, 65%, 20% and 10%.

Values taken from patent US8076351B2, “Camptothecin derivatives with antitumor activity” (Indena S.p.A., priority 2006, dated 2011).
